The values that follow come from PubChem BioAssay AID1259407 (Chemical Carcinogenesis Research Information System (CCRIS), 2018).

Calls of active or inactive are those of the source. The rule behind the calls is not given here.

The test system of the series is CCRIS mutagenicity, Ames/micronucleus/aberration tests. In words: CCRIS mutagenicity studies.
Where [1] appears, read: Test System: AMES SALMONELLA TYPHIMURIUM, Strain/Indicator: TA98, Metabolic Activation: NONE, Method: PREINCUBATION
Where [2] appears, read: Test System: AMES SALMONELLA TYPHIMURIUM, Strain/Indicator: TA100, Metabolic Activation: NONE, Method: PREINCUBATION
The mark [3] stands for this setting: Test System: AMES SALMONELLA TYPHIMURIUM, Strain/Indicator: TA1537, Metabolic Activation: NONE, Method: PREINCUBATION
The mark [4] stands for this setting: Test System: AMES SALMONELLA TYPHIMURIUM, Strain/Indicator: TA98, Metabolic Activation: RAT, LIVER, S-9, KANECHLOR 500, Method: PREINCUBATION

On to `Cc1ccc([N+](=O)[O-])cc1N=O`, for which the mutagenic call is “active; positive” under setting [1]; “inactive; negative” (Test System: AMES SALMONELLA TYPHIMURIUM, Strain/Indicator: TA98, Metabolic Activation: NONE, Method: SUSPENSION/PLATE); “active; positive” (Test System: AMES SALMONELLA TYPHIMURIUM, Strain/Indicator: TA98, Metabolic Activation: RAT, LIVER, S-9, AROCLOR, Method: PREINCUBATION); “inactive; negative” (Test System: AMES SALMONELLA TYPHIMURIUM, Strain/Indicator: TA98, Metabolic Activation: RAT, LIVER, S-9, PHENOBARBITAL AND 5,6-BENZOFLAVONE, Method: SUSPENSION/PLATE); “inactive; negative” (Test System: AMES SALMONELLA TYPHIMURIUM, Strain/Indicator: TA100, Metabolic Activation: NONE, Method: SUSPENSION/PLATE); “inactive; negative” (Test System: AMES SALMONELLA TYPHIMURIUM, Strain/Indicator: TA100, Metabolic Activation: RAT, LIVER, S-9, PHENOBARBITAL AND 5,6-BENZOFLAVONE, Method: SUSPENSION/PLATE).
As for `CCNCCN`, the mutagenic call under setting [1] was “inactive; negative”; the mutagenic call (Test System: AMES SALMONELLA TYPHIMURIUM, Strain/Indicator: TA98, Metabolic Activation: RAT LIVER S-9, PHENOBARBITAL AND BETA-NAPHTHOFLAVONE, Method: PREINCUBATION) was “inactive; negative”; the mutagenic call under setting [2] is “inactive; negative”; the mutagenic call (Test System: AMES SALMONELLA TYPHIMURIUM, Strain/Indicator: TA100, Metabolic Activation: RAT LIVER S-9, PHENOBARBITAL AND BETA-NAPHTHOFLAVONE, Method: PREINCUBATION) was “inactive; negative”; the mutagenic call (Test System: AMES SALMONELLA TYPHIMURIUM, Strain/Indicator: TA1535, Metabolic Activation: NONE, Method: PREINCUBATION) was “inactive; negative”; the mutagenic call (Test System: AMES SALMONELLA TYPHIMURIUM, Strain/Indicator: TA1535, Metabolic Activation: RAT LIVER S-9, PHENOBARBITAL AND BETA-NAPHTHOFLAVONE, Method: PREINCUBATION) was “inactive; negative”. For the same compound, the mutagenic call is, setting by setting: under setting [3], “inactive; negative”; (Test System: AMES SALMONELLA TYPHIMURIUM, Strain/Indicator: TA1537, Metabolic Activation: RAT LIVER S-9, PHENOBARBITAL AND BETA-NAPHTHOFLAVONE, Method: PREINCUBATION) “inactive; negative”; (Test System: AMES SALMONELLA TYPHIMURIUM, Strain/Indicator: TA1538, Metabolic Activation: NONE, Method: PREINCUBATION) “inactive; negative”; (Test System: AMES SALMONELLA TYPHIMURIUM, Strain/Indicator: TA1538, Metabolic Activation: RAT LIVER S-9, PHENOBARBITAL AND BETA-NAPHTHOFLAVONE, Method: PREINCUBATION) “inactive; negative”; (Test System: E.COLI, Strain/Indicator: WP2UVRA, Metabolic Activation: NONE, Method: PREINCUBATION) “inactive; negative”; (Test System: E.COLI, Strain/Indicator: WP2UVRA, Metabolic Activation: RAT LIVER S-9, PHENOBARBITAL AND BETA-NAPHTHOFLAVONE, Method: PREINCUBATION) “inactive; negative”.
As for `O=[N+]([O-])c1cc(CCl)cc([N+](=O)[O-])c1`, the mutagenic call under setting [1] is “active; positive”; the mutagenic call under setting [4] is “active; positive”; the mutagenic call under setting [2] is “active; positive”; the mutagenic call (Test System: AMES SALMONELLA TYPHIMURIUM, Strain/Indicator: TA100, Metabolic Activation: RAT, LIVER, S-9, KANECHLOR 500, Method: PREINCUBATION) was “active; positive”.
For `Cc1cc2nc3c(=O)[nH]c(=O)nc-3n(C)c2cc1C`, the mutagenic call is, setting by setting: (Test System: AMES SALMONELLA TYPHIMURIUM, Strain/Indicator: TA97A, Metabolic Activation: NONE, Method: PREINCUBATION) “inactive; negative”; (Test System: AMES SALMONELLA TYPHIMURIUM, Strain/Indicator: TA97A, Metabolic Activation: RAT, CECAL CELL-FREE EXTRACT, Method: PREINCUBATION) “active; positive”; (Test System: AMES SALMONELLA TYPHIMURIUM, Strain/Indicator: TA97A, Metabolic Activation: RAT, LIVER, S9, AROCLOR 1254, Method: PREINCUBATION) “active; positive”; under setting [1], “inactive; negative”; (Test System: AMES SALMONELLA TYPHIMURIUM, Strain/Indicator: TA98, Metabolic Activation: RAT, CECAL CELL-FREE EXTRACT, Method: PREINCUBATION) “inactive; negative”; (Test System: AMES SALMONELLA TYPHIMURIUM, Strain/Indicator: TA98, Metabolic Activation: RAT, LIVER, S9, AROCLOR 1254, Method: PREINCUBATION) “active; positive”. The mutagenic call under setting [2] is “inactive; negative”; the mutagenic call (Test System: AMES SALMONELLA TYPHIMURIUM, Strain/Indicator: TA100, Metabolic Activation: RAT, CECAL CELL-FREE EXTRACT, Method: PREINCUBATION) is “inactive; negative”; the mutagenic call (Test System: AMES SALMONELLA TYPHIMURIUM, Strain/Indicator: TA100, Metabolic Activation: RAT, LIVER, S9, AROCLOR 1254, Method: PREINCUBATION) is “inactive; negative”.
On to `Nc1ccc(-c2ccc([N+](=O)[O-])cc2N)c([N+](=O)[O-])c1`, for which the mutagenic call was “active; positive” under setting [1] and “active; positive” under setting [4].
`c1ccc2c(c1)oc1ccccc12`: the mutagenic call reads like this: (End Point: IN VITRO CHROMOSOMAL ABERRATIONS, Test System: CHINESE HAMSTER OVARY CELLS, Metabolic Activation: NONE) “inactive; negative”; (End Point: IN VITRO CHROMOSOMAL ABERRATIONS, Test System: CHINESE HAMSTER OVARY CELLS, Metabolic Activation: RAT, LIVER, S-9, AROCLOR 1254) “inactive; negative”; (Test System: AMES SALMONELLA TYPHIMURIUM, Strain/Indicator: TA98, Metabolic Activation: HAMSTER LIVER S-9, AROCLOR 1254, Method: STANDARD PLATE) “inactive; negative”; (Test System: AMES SALMONELLA TYPHIMURIUM, Strain/Indicator: TA98, Metabolic Activation: NONE, Method: STANDARD PLATE) “inactive; negative”; (Test System: AMES SALMONELLA TYPHIMURIUM, Strain/Indicator: TA98, Metabolic Activation: RAT LIVER S-9, AROCLOR 1254, Method: STANDARD PLATE) “inactive; negative”; (Test System: AMES SALMONELLA TYPHIMURIUM, Strain/Indicator: TA98, Metabolic Activation: RAT, LIVER, S-9, PHENOBARBITAL AND NAPHTHOFLAVONE, Method: STANDARD PLATE) “inactive; negative”. In addition, the mutagenic call is, setting by setting: (Test System: AMES SALMONELLA TYPHIMURIUM, Strain/Indicator: TA98, Metabolic Activation: S-9, PHENOBARBITAL AND 5,6-BENZOFLAVONE, Method: STANDARD PLATE) “inactive; negative”; (Test System: AMES SALMONELLA TYPHIMURIUM, Strain/Indicator: TA100, Metabolic Activation: HAMSTER LIVER S-9, AROCLOR 1254, Method: STANDARD PLATE) “inactive; negative”; (Test System: AMES SALMONELLA TYPHIMURIUM, Strain/Indicator: TA100, Metabolic Activation: NONE, Method: STANDARD PLATE) “inactive; negative”; (Test System: AMES SALMONELLA TYPHIMURIUM, Strain/Indicator: TA100, Metabolic Activation: RAT LIVER S-9, AROCLOR 1254, Method: STANDARD PLATE) “inactive; negative”; (Test System: AMES SALMONELLA TYPHIMURIUM, Strain/Indicator: TA100, Metabolic Activation: RAT, LIVER, S-9, PHENOBARBITAL AND NAPHTHOFLAVONE, Method: STANDARD PLATE) “inactive; negative”; (Test System: AMES SALMONELLA TYPHIMURIUM, Strain/Indicator: TA100, Metabolic Activation: S-9, PHENOBARBITAL AND 5,6-BENZOFLAVONE, Method: STANDARD PLATE) “inactive; negative”.
As to `CC(C)c1ccc2oc3nc(N)c(C(=O)O)cc3c(=O)c2c1`, the mutagenic call is, setting by setting: under setting [1], “inactive; negative”; (Test System: AMES SALMONELLA TYPHIMURIUM, Strain/Indicator: TA98, Metabolic Activation: RAT, LIVER, S-9, AROCLOR 1254, Method: PREINCUBATION) “inactive; negative”; under setting [2], “inactive; negative”; (Test System: AMES SALMONELLA TYPHIMURIUM, Strain/Indicator: TA100, Metabolic Activation: RAT, LIVER, S-9, AROCLOR 1254, Method: PREINCUBATION) “inactive; negative”; under setting [3], “inactive; negative”; (Test System: AMES SALMONELLA TYPHIMURIUM, Strain/Indicator: TA1537, Metabolic Activation: RAT, LIVER, S-9, AROCLOR 1254, Method: PREINCUBATION) “inactive; negative”. In addition, the mutagenic call by setting is: (Test System: E. COLI, Strain/Indicator: WP2 (HCR), Metabolic Activation: NONE, Method: PREINCUBATION) “inactive; negative”; (Test System: E. COLI, Strain/Indicator: WP2 (HCR), Metabolic Activation: RAT, LIVER, S-9, AROCLOR 1254, Method: PREINCUBATION) “inactive; negative”.
With `O[C@@H]1[C@@H]2O[C@@H]2c2cc3c(ccc4ccccc43)cc2[C@H]1O`, the mutagenic call (Test System: CHINESE HAMSTER V-79, Strain/Indicator: V-79/8-AZAGUANINE, Metabolic Activation: NONE, Method: STANDARD PLATE) is “active; positive”.
